According to ChEMBL document CHEMBL1136905, “Substituted isoxazole analogs of farnesoid X receptor (FXR) agonist GW4064” (Bioorg Med Chem Lett, 2009):

Legend:
Bile acid receptor [1] = biological target: T1, Bile acid receptor (Homo sapiens, UniProt Q96RI1); assay: Agonist activity at human FXR assessed as SRC1 peptide interaction with receptor ligand binding domain by FRET assay
T1 sequence (Q96RI1 whole entry): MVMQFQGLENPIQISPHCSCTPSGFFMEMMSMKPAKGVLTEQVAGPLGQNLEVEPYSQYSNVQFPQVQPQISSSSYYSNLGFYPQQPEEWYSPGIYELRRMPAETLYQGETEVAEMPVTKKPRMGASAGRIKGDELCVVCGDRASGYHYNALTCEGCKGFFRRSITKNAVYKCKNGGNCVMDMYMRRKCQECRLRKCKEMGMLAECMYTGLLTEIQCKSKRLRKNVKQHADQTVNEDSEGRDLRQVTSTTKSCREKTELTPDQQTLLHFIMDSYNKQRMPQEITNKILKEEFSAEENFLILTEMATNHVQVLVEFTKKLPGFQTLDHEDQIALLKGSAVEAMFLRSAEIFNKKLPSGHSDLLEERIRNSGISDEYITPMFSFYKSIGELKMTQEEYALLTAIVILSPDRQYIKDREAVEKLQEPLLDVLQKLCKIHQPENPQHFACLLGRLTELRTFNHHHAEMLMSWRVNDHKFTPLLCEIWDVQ

[2] = biological target: T2, Nuclear receptor ROR-alpha (Homo sapiens, UniProt P35398); assay: Activity at RORalpha assessed as coactivator peptide interaction with receptor ligand binding domain by FRET assay
T2 sequence (P35398 whole entry): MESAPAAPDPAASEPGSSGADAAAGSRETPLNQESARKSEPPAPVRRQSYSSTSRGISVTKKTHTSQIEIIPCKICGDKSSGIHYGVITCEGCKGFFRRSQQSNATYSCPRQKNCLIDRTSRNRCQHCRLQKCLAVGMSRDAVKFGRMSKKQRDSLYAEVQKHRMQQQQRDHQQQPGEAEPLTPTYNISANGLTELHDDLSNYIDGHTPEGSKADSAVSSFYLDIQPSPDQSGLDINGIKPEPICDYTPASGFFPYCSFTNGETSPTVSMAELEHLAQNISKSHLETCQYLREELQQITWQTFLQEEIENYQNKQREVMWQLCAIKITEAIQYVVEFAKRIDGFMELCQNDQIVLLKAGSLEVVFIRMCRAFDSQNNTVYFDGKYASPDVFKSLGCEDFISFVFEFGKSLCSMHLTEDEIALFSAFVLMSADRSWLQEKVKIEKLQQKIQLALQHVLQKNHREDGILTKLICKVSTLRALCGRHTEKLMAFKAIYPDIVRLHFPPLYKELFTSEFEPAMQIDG

[3] = Selectivity ratio of XC50 for RORalpha to EC50 for human FXR
Bile acid receptor [4] = biological target: T1, Bile acid receptor; assay: Agonist activity at human FXR transfected in african green monkey CV1 cells by luciferase reporter gene transient transfection assay; type: functional, cell-based, CV-1
[5] = Selectivity ratio of XC50 for PXR to EC50 for human FXR
[6] = biological target: T3, Oxysterols receptor LXR-alpha (Homo sapiens, UniProt Q13133); assay: Activity at LXRalpha assessed as coactivator peptide interaction with receptor ligand binding domain by FRET assay
T3 sequence (Q13133 whole entry): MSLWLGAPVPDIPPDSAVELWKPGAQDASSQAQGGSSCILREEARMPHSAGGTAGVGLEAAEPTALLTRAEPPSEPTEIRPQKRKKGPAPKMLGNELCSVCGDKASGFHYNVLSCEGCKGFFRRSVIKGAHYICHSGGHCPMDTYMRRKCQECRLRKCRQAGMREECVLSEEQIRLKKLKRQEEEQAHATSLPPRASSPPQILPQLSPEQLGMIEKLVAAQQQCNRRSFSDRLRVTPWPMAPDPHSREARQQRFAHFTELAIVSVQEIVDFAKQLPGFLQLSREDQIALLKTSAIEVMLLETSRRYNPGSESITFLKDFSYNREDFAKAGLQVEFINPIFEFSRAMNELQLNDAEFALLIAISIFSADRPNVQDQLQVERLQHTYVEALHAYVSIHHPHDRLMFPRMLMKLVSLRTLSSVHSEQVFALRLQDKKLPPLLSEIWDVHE

[7] = biological target: T4, PXR (Nuclear receptor subfamily 1 group I member 2) (Homo sapiens, UniProt O75469); assay: Activity at PXR assessed as coactivator peptide interaction with receptor ligand binding domain by scintillation proximity assay relative to standard control; conditions: read-out: %max
T4 sequence (O75469 whole entry): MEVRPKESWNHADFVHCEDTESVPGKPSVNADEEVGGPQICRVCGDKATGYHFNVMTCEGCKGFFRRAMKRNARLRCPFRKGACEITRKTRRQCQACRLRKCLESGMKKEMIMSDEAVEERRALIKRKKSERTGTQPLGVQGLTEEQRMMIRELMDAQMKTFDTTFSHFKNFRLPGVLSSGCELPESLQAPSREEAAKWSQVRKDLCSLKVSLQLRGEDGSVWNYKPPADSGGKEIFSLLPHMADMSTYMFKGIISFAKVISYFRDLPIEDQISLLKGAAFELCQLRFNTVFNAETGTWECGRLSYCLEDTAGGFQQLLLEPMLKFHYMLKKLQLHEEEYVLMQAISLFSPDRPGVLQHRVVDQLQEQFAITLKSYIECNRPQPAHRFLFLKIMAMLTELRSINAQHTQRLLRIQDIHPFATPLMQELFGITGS

[8] = Selectivity ratio of XC50 for LXRalpha to EC50 for human FXR
[9] = biological target: T5, Nuclear receptor subfamily 5 group A member 2 (Homo sapiens, UniProt O00482); assay: Activity at LRH assessed as coactivator peptide interaction with receptor ligand binding domain by FRET assay relative to standard control
[10] = biological target: T4, PXR (Nuclear receptor subfamily 1 group I member 2); assay: Activity at PXR assessed as coactivator peptide interaction with receptor ligand binding domain by scintillation proximity assay
[11] = biological target: T6, Bile acid receptor (Homo sapiens) (UniProt Q96RI1); assay: Agonist activity at human FXR transfected in african green monkey CV1 cells by luciferase reporter gene transient transfection assay relative to GW-4064; type: functional, cell-based; conditions: CV-1
T6 sequence (whole entry): T1 sequence (Q96RI1 whole entry)

[12] = biological target: T7, Oxysterols receptor LXR-beta (Homo sapiens) (UniProt P55055); assay: Activity at LXRbeta assessed as coactivator peptide interaction with receptor ligand binding domain by scintillation proximity assay relative to standard control
T7 sequence (whole entry): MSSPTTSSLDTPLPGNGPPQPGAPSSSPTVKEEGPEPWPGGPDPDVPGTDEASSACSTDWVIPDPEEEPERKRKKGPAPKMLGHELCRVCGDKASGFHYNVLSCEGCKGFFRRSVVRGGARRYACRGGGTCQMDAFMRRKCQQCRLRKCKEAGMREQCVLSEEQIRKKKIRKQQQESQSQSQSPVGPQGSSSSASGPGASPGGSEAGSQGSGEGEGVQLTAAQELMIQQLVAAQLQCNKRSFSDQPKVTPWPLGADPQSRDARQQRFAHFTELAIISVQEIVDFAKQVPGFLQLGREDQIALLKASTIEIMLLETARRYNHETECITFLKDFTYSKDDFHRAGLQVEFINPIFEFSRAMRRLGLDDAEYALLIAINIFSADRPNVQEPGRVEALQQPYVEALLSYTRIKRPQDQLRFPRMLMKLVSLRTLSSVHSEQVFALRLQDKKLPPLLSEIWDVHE

[13] = biological target: T8, Oxysterols receptor LXR-alpha (Homo sapiens) (UniProt Q13133); assay: Activity at LXRalpha assessed as coactivator peptide interaction with receptor ligand binding domain by FRET assay relative to standard control
T8 sequence (whole entry): T3 sequence (Q13133 whole entry)

[14] = biological target: T6, Bile acid receptor (Homo sapiens); assay: Agonist activity at human FXR assessed as SRC1 peptide interaction with receptor ligand binding domain by FRET assay relative to GW-4064
[15] = biological target: T9, Oxysterols receptor LXR-beta (Homo sapiens, UniProt P55055); assay: Activity at LXRbeta assessed as coactivator peptide interaction with receptor ligand binding domain by scintillation proximity assay
T9 sequence (P55055 whole entry): T7 sequence (whole entry)

[16] = Selectivity ratio of XC50 for LXRbeta to EC50 for human FXR
[17] = biological target: T5, Nuclear receptor subfamily 5 group A member 2; assay: Activity at LRH assessed as coactivator peptide interaction with receptor ligand binding domain by FRET assay
[18] = Selectivity ratio of XC50 for LRH to EC50 for human FXR

T5 sequence (O00482 whole entry, the tested form may be a part): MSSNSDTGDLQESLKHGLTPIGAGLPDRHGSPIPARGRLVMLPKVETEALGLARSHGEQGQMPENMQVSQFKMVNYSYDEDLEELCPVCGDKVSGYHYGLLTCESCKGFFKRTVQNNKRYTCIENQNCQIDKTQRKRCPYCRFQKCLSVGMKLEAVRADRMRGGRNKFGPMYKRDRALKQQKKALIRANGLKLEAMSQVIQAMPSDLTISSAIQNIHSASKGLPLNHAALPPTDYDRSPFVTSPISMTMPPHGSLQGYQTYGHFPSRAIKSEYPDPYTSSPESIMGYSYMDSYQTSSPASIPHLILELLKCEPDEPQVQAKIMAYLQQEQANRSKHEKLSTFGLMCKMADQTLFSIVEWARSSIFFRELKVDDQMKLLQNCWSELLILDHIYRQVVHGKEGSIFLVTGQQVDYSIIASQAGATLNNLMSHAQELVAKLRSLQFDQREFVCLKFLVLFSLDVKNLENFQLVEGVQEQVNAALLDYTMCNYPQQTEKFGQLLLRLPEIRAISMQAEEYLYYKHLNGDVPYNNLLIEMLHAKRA

- EC50 (Bile acid receptor [1]): 28 nM
- XC50 [2]: > 10000 nM
- Ratio [3]: 100
- EC50 (Bile acid receptor [4]): 72 nM
- Ratio [5]: 100
- XC50 [6]: 1400 nM
- Emax [7]: 100%
- Ratio [8]: 100
- %max [9]: 46%
- XC50 [10]: 960 nM
- %max [11]: 100%
- %max [12]: 101%
- %max [13]: 33%
- %max [14]: 110%
- XC50 [15]: 2500 nM
- Ratio [16]: 100
- XC50 [17]: 4200 nM
- Ratio [18]: 100
SMILES: CC(C)c1onc(C[S+]([O-])c2c(Cl)cccc2Cl)c1COc1ccc(/C=C/c2cccc(C(=O)O)c2)c(Cl)c1 (stereo not drawn)
